In patent publication US20090176837A1, “COMPOUNDS WITH ACTIVITY AT RETINOIC ACID RECEPTORS” (SONY CORPORATION, priority 2006, published 2009):
Like-named read-outs stand apart in the source and are kept apart here.

Key:
RARβ2 = target: T1, RARβ2 (Homo sapiens, UniProt P10826); assay: Receptor Selection and Amplification Technology (R-SAT) functional receptor assay; format: cell-based
T1 construct: expressed in transfected cells
T1 sequence (P10826 1-448 isoform P10826-2): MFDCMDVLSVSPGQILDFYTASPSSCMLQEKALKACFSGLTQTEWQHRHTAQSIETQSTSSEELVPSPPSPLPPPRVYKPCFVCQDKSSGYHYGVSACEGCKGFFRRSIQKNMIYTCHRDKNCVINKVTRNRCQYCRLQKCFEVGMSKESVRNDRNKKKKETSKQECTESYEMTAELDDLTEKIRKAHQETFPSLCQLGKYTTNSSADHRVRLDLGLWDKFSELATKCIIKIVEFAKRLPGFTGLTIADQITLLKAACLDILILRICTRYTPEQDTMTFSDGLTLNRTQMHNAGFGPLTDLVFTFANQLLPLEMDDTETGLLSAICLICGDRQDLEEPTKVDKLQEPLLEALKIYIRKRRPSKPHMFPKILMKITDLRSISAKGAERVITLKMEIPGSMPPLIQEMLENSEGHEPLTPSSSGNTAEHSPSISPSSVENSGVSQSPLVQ
Description: The functional receptor assay, Receptor Selection and Amplification Technology (R-SAT), was used to investigate the pharmacological properties of known and novel RARβ agonists and antagonists.
Efficacy is relative to the maximal response of the reference ligand, Am-580.

NTERA-2 Cells = assay: Induction of neuronal differentiation in NTERA-2 cells; format: cell-based
[1] = Table 1, efficacy relative to the maximal response of the reference ligand Am-580
[2] = Table 2, efficacy relative to the maximal response of the reference ligand Am-580
[3] = Table 1, efficacy relative to the maximal response of the reference ligand Am-580, read-out: % Eff.
[4] = Table 1, read-out: pEC50 (converted)
[5] = Table 2, efficacy relative to the maximal response of the reference ligand Am-580, read-out: % Eff.
[6] = Table 2, read-out: pEC50 (converted)

CCCCCCCCc1ccc(-c2ccc(C(=O)O)cc2)cc1 [Compound 6]
pEC50 (RARβ2; Table 1): 7.73
% Eff. (RARβ2; [1]): 104%
neuronal differentiation (NTERA-2 Cells): induce neuronal differentiation

CCCCCCCc1ccc(-c2ccc(C(=O)OCc3ccco3)cc2)cc1 [Compound 21]
pEC50 (RARβ2; Table 2): 7.26
% Eff. (RARβ2; [2]): 106%

CCCCCCCCc1ccc(-c2ccc(C(=O)OCCc3ccccn3)cc2)cc1 [Compound 14]
pEC50 (RARβ2; Table 2): 7.38
% Eff. (RARβ2; [2]): 93%

CCCCCCCCN1CCN(c2ccc(C(=O)O)cc2)CC1 [Compound 50, 4-(4-Octyl-piperazin-1-yl)-benzoic acid]
Emax (RARβ2; [3]): 85%
EC50 (RARβ2; pEC50, Table 1): 0.295 µM

CCCCCCCCOc1ccc(-c2ccc(C(=O)NCCc3ccccn3)cc2)cc1 [Compound 54, 4′-Octyloxy-biphenyl-4-carboxylic acid (2-pyridin-2-yl-ethyl)-amide]
Emax (RARβ2; [3]): 39%
EC50 (RARβ2; [4]): 0.661 µM

CCCCCCCc1ccc(-c2ccc(C(=O)OCCc3ccccn3)c(F)c2)cc1 [Compound 7, 3-Fluoro-4′-heptyl-biphenyl-4-carboxylic acid 2-pyridin-2-yl-ethyl ester]
Emax (RARβ2; [5]): 95%
EC50 (RARβ2; [6]): 0.0195 µM

CCCCCc1ccc(-c2ccc(C(=O)O)cc2)cc1 [Compound 4]
pEC50 (RARβ2; Table 1): 7.82
Emax (RARβ2; [3]): 44%

CCCCCCCCc1ccc(-c2ccc(C(=O)O)cc2)cc1 [Compound 35]
pEC50 (RARβ2; Table 1): 6.94
% Eff. (RARβ2; [1]): 83%

CCCCCCCCOc1ccc(-c2ccc(C(=O)O)cc2)cc1 [Compound 32]
pEC50 (RARβ2; Table 1): 7.02
Emax (RARβ2; [3]): 70%

CCCCCCCCc1ccc(-c2ccc(C(=O)NS(C)(=O)=O)cc2)cc1 [Compound 60, N-(4′-Octyl-biphenyl-4-carbonyl)-methanesulfonamide]
Emax (RARβ2; [3]): 51%
EC50 (RARβ2; [4]): 0.832 µM

CCCCCCCCc1ccc(-c2ccc(C(=O)OCCc3ccccn3)cc2)cc1 [Compound 68]
neuronal differentiation (NTERA-2 Cells): induce neuronal differentiation

O=C(O)c1ccc(-c2ccc(OCCC=C(C3CC3)C3CC3)cc2)cc1 [Compound 26, 4′[(4,4-Dicyclopropyl-3-butenyl)oxy][1,1-biphenyl]-4-carboxylic acid]
% Eff. (RARβ2; [1]): 36%

CCCCOCCOc1ccc(-c2ccc(C(=O)O)cc2)cc1 [Compound 18, 4′-(2-Butoxyethoxy)-[1,1-biphenyl]-4-carboxylic acid]
Emax (RARβ2; [3]): 108%
EC50 (RARβ2; [4]): 0.0479 µM

Cc1sc(-c2ccc(C(=O)O)cc2)nc1OCC(=O)NC1CCCCCC1 [Compound 56, 4-(4-Cycloheptycarbamoylmethoxy-5-methyl-thiazol-2-yl)-benzoic acid]
Emax (RARβ2; [3]): 105%
EC50 (RARβ2; [4]): 0.676 µM

CCCCCCCCOc1ccc(-c2ccc(C(=O)OCc3ccco3)cc2)cc1 [Compound 43, 4′-Octyloxy-biphenyl-4-carboxylic acid furan-2-ylmethyl ester]
Emax (RARβ2; [5]): 67%
EC50 (RARβ2; [6]): 0.214 µM

CCCCCCCc1ccc(-c2ccc(C(=O)OCc3ccco3)cc2)cc1 [Compound 17, 4′-Heptyl-biphenyl-4-carboxylic acid furan-2-ylmethyl Ester]
% Eff. (RARβ2; [2]): 33%
EC50 (RARβ2; [6]): 0.0457 µM

CCCOCCOc1nc(-c2ccc(C(=O)O)cc2)sc1C [Compound 33, 4-[5-Methyl-4-(2-propoxy-ethoxy)-thiazol-2-yl]-benzoic acid]
Emax (RARβ2; [3]): 98%
EC50 (RARβ2; [4]): 0.11 µM

Cc1sc(-c2ccc(C(=O)O)cc2)nc1OCC(=O)NC1CCCC1 [Compound 61, 4-(4-Cyclopentylcarbamoylmethoxy-5-methyl-thiazol-2-yl)-benzoic acid]
Emax (RARβ2; [3]): 39%
EC50 (RARβ2; [4]): 0.832 µM

CCCCCCCOc1ccc(-c2ccc(C(=O)OCCc3ccccn3)cc2)cc1 [Compound 30, 4′-Heptyloxy-biphenyl-4-carboxylic acid 2-pyridin-2-yl-ethyl ester]
Emax (RARβ2; [5]): 62%
EC50 (RARβ2; [6]): 0.0912 µM

CCCCCCCc1ccc(-c2ccc(C(=O)NO)cc2)cc1 [Compound 37, 4′-Heptyl-biphenyl-4-carboxylic acid hydroxyamide]
Emax (RARβ2; [3]): 49%
EC50 (RARβ2; [4]): 0.135 µM

CCCCCCc1ccc(-c2ccc(C(=O)O)cc2)cc1 [Compound 16]
pEC50 (RARβ2; Table 1): 7.34
Emax (RARβ2; [3]): 37%

CCCCCCCCc1ccc(-c2ccc(C(=O)O)c(C)c2)cc1 [Compound 55, 3-Methyl-4′-octyl[1,1′-biphenyl]-4-carboxylic acid]
Emax (RARβ2; [3]): 84%
EC50 (RARβ2; [4]): 0.676 µM

CCCCCCCOc1ccc(-c2ccc(C(=O)OCCC#N)cc2)cc1 [Compound 39, 4′-Heptyloxy-biphenyl-4-carboxylic acid 2-cyano-ethyl ester]
% Eff. (RARβ2; [2]): 42%
EC50 (RARβ2; [6]): 0.174 µM

CCCCC(CC)COc1nc(-c2ccc(C(=O)O)cc2)sc1C (stereo not shown) [Compound 46, 4-[4-(2-Ethyl-hexyloxy)-5-methyl-thiazol-2-yl]-benzoic acid]
Emax (RARβ2; [3]): 54%
EC50 (RARβ2; [4]): 0.263 µM

CCCCCCCCc1ccc(-c2ccc(C(=O)OCc3ccco3)cc2)cc1 [Compound 48, 4′-Octyl-biphenyl-4-carboxylic acid furan-2-ylmethyl ester]
Emax (RARβ2; [5]): 49%
EC50 (RARβ2; [6]): 0.275 µM
